Experimental data taken from paper PMC6001459 (The Febs Journal, 2018).

Target: T1, PpBBE1 (Physcomitrium patens, UniProt A0A2K1JP57, D396N)
T1 construct: gene PHYPA_015719; full-length precursor 501 residues; native signal peptide (predicted 1-30) removed; C-terminal octahistidine tag; secreted from Komagataella phaffii KM71H (pPICZalpha, PDI coexpressed); ca. 54 kDa; monomer; bicovalent FAD
Experiment: X-ray crystal structure, […] A
Assay type: binding
Conditions: covalent; bicovalent via 8alpha to H111 and C6 to C172

T1 sequence (A0A2K1JP57 entry or part of it D396N): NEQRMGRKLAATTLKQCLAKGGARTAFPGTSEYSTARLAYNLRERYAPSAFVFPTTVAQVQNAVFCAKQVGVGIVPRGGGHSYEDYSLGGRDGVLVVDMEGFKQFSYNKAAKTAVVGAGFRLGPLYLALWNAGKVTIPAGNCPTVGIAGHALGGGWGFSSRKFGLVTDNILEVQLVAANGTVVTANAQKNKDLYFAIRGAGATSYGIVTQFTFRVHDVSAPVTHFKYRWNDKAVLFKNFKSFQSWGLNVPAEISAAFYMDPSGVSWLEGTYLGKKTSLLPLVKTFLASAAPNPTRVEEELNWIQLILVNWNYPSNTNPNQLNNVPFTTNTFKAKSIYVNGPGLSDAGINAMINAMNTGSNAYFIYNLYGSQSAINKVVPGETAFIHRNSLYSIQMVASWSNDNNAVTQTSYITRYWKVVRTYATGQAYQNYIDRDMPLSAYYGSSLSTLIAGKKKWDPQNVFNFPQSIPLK

SMILES: Cc1cc2nc3c(=O)[nH]c(=O)nc-3n(C[C@H](O)[C@H](O)[C@H](O)COP(=O)(O)OP(=O)(O)OC[C@H]3O[C@@H](n4cnc5c(N)ncnc54)[C@H](O)[C@@H]3O)c2cc1C [FAD]
- X-ray crystal structure, 2.6 A: confirmed the bicovalent linkage of the flavin cofactor
